Assay: Solubility (product profile)
Assay type: physicochemical
Settings: API
Source text: Further information providing the solubility, particle size, viscosity, and other product profile parameters of exemplary CLS-AX compositions (active pharmaceutical ingredient (API); and drug product) are provided in Table 1C.

CNC(=O)c1ccccc1Sc1ccc2c(/C=C/c3ccccn3)n[nH]c2c1 [Axitinib]
Solubility (solvent): DMSO

From patent US20250025452A1 (Clearside Biomedical, Inc., priority 2023, published 2025)
